Measured values: patent US20070129380A1

How the values were obtained:
Botrytis cinerea = assay: Activity against gray mold on bell pepper leaves caused by Botrytis cinerea, protective application; format: in vivo; settings: 250 ppm active compound, sprayed to runoff, bell pepper seedlings, inoculated next day, assessed after 5 days; untreated plants 90% infected
Description: The active compounds were prepared separately as a stock solution with 0.25% by weight of active compound in acetone or DMSO. 1% by weight of the emulsifier Uniperol® EL (wetting agent having emulsifying and dispersing action based on ethoxylated alkyl-phenols) was added to this solution. The stock solutions of the active compounds were diluted with water to the desired concentration. 1) Activity Against Gray Mold on Bell Pepper Leaves Caused by Botrytis cinerea, Protective Application […] The next day, the treated plants were inoculated with a spore suspension of Botrytis cinerea, this contained 1.7×10^6 spores/ml in a 2% strength aqueous biomalt solution. The test plants were then placed in a climate-chamber at 22-24° C. and high atmospheric humidity.

[1] = tested on: Pyrenophora [syn. Drechslera] teres; assay: Activity against net blotch of barley caused by Pyrenophora teres; format: in vivo; settings: 250 ppm active compound, sprayed to runoff, barley seedlings, inoculated 24 hours after drying, assessed after 6 days; untreated plants 80% infected
Description: The active compounds were prepared separately as a stock solution with 0.25% by weight of active compound in acetone or DMSO. 1% by weight of the emulsifier Uniperol® EL (wetting agent having emulsifying and dispersing action based on ethoxylated alkyl-phenols) was added to this solution. The stock solutions of the active compounds were diluted with water to the desired concentration. 4) Activity Against Net Blotch of Barley Caused by Pyrenophora teres […] Drechslera] teres, the causative agent of net blotch. The test plants were subsequently placed in a greenhouse at temperatures of between 20 and 24° C. and a relative atmospheric humidity of 95 to 100%. After 6 days, the extent of development of the disease was determined visually in % of infection of the total leaf area.

Compound	melting point	extent of the fungal infection on the leaves determined visually in % (Botrytis cinerea)	extent of development of the disease determined visually in % of infection of the total leaf area [1]
C[C@H](Nc1nc(C(N)=S)nc(Cl)c1-c1c(F)cc(F)cc1F)C(F)(F)F [Compound I-2, (S)-4-chloro-6-(2,2,2-trifluoro-1-methylethylamino)-5-(2,4,6-trifluorophenyl)pyrimidine-2-thiocarbamide]	–	not infected	–
CCN(CC)c1nc(C(N)=S)nc(Cl)c1-c1c(F)cc(F)cc1F [Compound I-19]	55 to 58 °C	–	10%
CC(C)Nc1nc(C(N)=S)nc(Cl)c1-c1c(F)cccc1Cl [Compound I-3]	–	not infected	–

Now from value to compound, other results behind:

melting point	Compound	extent of the fungal infection on the leaves determined visually in % (Botrytis cinerea)	extent of development of the disease determined visually in % of infection of the total leaf area [1]
147 to 150 °C	CCC(C)Nc1nc(C(N)=S)nc(Cl)c1-c1c(F)cccc1Cl (stereo not drawn) [Compound I-8, 4-sec-butylamino-6-chloro-5-(2-chloro-6-fluorophenyl)pyrimidine-2-thiocarbamide]	not infected	–
158 °C	Cc1nc(C(N)=S)nc(NC(C)C)c1-c1c(F)cc(F)cc1F [Compound I-23]	–	–
145 to 149 °C	CC(C)Nc1nc(C(N)=S)nc(Cl)c1-c1c(F)cc(F)cc1F [Compound I-4]	not infected	–
